Results: patent US20200268835A1, “Compounds For Use in NASH” (Novo Nordisk A/S, priority 2019, published 2020)
Numbered stars: 1 amine (or outer) side, 2 acyl side, 3 side chain; on linkers, the order of the positions; unused ones are H or OH. Square brackets hold non-standard residues; d marks the D form. Side chains are listed from the residue outwards. Peptide text beside a SMILES is read from it. * marks the point of attachment. C18 diacid = O=C(O)CCCCCCCCCCCCCCCCC(=O)*; γGlu = O=C(O)[C@H](CCC(=O)[*:2])N[*:1]; Ac4c = NC1(C(=O)O)CCC1; AEEA = NCCOCCOCC(=O)O; Aib = CC(C)(N)C(=O)O

Columns and labels:
[1] = Plasma alanine transferase levels in diet-induced NASH mice; type: in vivo, male C57BL/6 mice; settings: after 56 days of treatment, SC once daily; FIG. 3
Experimental: (§1) At 5 weeks of age, male C57BL/6 mice were purchased from JanVier, France. During the acclimatization and diet-induction period, the mice were group housed ten per cage in custom-made cabinets under a 12:12 light dark cycle (lights on from 3 AM-3 PM) at controlled temperature conditions (22±1° C.; 50±10% relative humidity). Throughout the diet-induction the mice had ad libitum access to AMLN diet (D09100301, Research Diet, USA) (40% fat (18% trans-fat), 40% carbohydrates (20% fructose) and 2% cholesterol) or regular rodent chow (chow vehicle group) (Altromin 1324, Brogaarden, Denmark) and tap water. Throughout the study period the mice had ad libitum access to AMLN diet, except the weight-matched group which was food restricted to lower the body weight to the same level as for animals receiving compound A or compound B, or regular rodent chow (chow vehicle group) and tap water. […]
(§2) During the diet-induction period, body weight was intermittently monitored. […]
Animal experiments were conducted as described in the section “General Methods of Animal Experiments”. […] All parameters are measured in single determinations using autoanalyzer Cobas C-111 with commercial kit (Roche Diagnostics, Germany) according to the manufacturer's instructions. Data are expressed as mean±SEM (NASH groups n=11-12, Chow Vehicle group n=10). […]

[2] = molecular target: T1, human glucagon receptor (Homo sapiens, UniProt P47871); assay: Glucagon receptor SPA binding assay; settings: 0% HSA; BHK cell membranes; displacement of [125I]-glucagon; read-out: Human GCG R SPA binding 0% HSA IC50
T1 construct: expressed in transfected cells; membrane preparation
From the text: (§3) In one embodiment affinity refers to in vitro binding affinity, i.e. performance in a GLP-1 receptor binding affinity assay and in a glucagon receptor binding affinity assay, more particularly to the capability of binding the human GLP-1 receptor and to the human glucagon receptor. The binding affinity of the human GLP-1 receptor may be measured in a binding assay, e.g. in a stably transfected BHK cell line that expresses the human GLP-1 receptor. Radioactively labelled GLP-1 binds to the receptor and may be displaced competitvely by a compound. Binding of radioligand may be determined in the presence of scintillation proximity assay (SPA) beads which bind to cell membranes and when radioactivity is close to the bead it produces light which is measured and is a measure of the in vitro binding affinity. […] The binding affinity of the human glucagon receptor may be measured in a binding affinity assay, e.g. in a stably transfected BHK cell line that expresses the human glucagon receptor. […] Binding of radioligand may be determined in the presence of scintillation proximity assay (SPA) beads which bind to cell membranes and when radioactivity is close to the bead it produces light which is measured and is a measure of the in vitro binding affinity. […] The protein concentration was subsequently determined, and the membranes were stored at −80° C. until use. […]

[3] = Hepatic terminal triglycerides and cholesterol content in diet-induced NASH mice; type: in vivo, male C57BL/6 mice; settings: after 56 days of treatment; FIG. 5A
Experimental: as §1, §2
Animal experiments were conducted as described in the section “General Methods of Animal Experiments”. Triglycerides and total cholesterol content in liver homogenates were measured in single determinations using autoanalyzer Cobas C-111 with commercial kit (Roche Diagnostics, Germany) according to manufacturer's instructions. […]

[4] = molecular target: T2, human GLP-1 receptor (Homo sapiens, UniProt P43220); assay: GLP-1 receptor SPA binding assay; settings: 0% HSA; BHK cell membranes; displacement of [125I]-GLP-1(7-36)-NH2; read-out: Human GLP1 R SPA binding 0% HSA IC50
T2 construct: expressed in transfected cells; membrane preparation
From the text: as §3

T1 sequence (P47871 26-477): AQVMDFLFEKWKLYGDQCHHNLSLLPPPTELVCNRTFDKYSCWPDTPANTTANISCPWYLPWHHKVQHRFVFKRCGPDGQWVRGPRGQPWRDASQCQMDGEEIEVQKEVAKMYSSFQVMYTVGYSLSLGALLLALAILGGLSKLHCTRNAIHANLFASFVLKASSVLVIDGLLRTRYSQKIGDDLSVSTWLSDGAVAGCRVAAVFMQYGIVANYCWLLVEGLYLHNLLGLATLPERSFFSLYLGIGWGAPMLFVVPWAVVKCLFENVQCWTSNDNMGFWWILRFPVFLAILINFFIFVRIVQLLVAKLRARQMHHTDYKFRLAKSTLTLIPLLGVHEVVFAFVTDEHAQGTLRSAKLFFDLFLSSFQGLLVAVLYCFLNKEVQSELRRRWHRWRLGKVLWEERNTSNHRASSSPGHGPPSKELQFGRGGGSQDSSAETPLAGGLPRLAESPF
T2 sequence (P43220 24-463): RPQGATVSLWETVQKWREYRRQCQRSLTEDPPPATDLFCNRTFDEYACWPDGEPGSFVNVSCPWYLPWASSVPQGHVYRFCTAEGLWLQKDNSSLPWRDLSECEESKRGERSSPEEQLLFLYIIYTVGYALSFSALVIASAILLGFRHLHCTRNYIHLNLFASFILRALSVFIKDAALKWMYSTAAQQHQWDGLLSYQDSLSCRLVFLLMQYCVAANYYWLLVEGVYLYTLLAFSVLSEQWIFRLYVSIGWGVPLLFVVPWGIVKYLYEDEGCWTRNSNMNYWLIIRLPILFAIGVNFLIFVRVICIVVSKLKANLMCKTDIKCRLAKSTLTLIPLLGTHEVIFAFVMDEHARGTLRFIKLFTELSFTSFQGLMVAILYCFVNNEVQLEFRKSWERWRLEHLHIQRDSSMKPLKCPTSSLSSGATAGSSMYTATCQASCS

Compound | effect on plasma ALT levels compared with the weight-matched (WM) group [1] | IC50 [2] | effect on liver triglyceride levels compared with the weight-matched (WM) group [3] | IC50 [4]
CC(C)C[C@H](NC(=O)[C@H](CC(=O)O)NC(=O)[C@H](CC(C)C)NC(=O)[C@H](Cc1ccc(O)cc1)NC(=O)[C@H](CCCCN)NC(=O)[C@H](CO)NC(=O)[C@H](CC(C)C)NC(=O)[C@H](CC(=O)O)NC(=O)[C@H](CO)NC(=O)[C@@H](NC(=O)[C@H](Cc1ccccc1)NC(=O)[C@@H](NC(=O)CNC(=O)[C@H](CCC(N)=O)NC(=O)C1(NC(=O)[C@@H](N)Cc2c[nH]cn2)CCC1)[C@@H](C)O)[C@@H](C)O)C(=O)N[C@@H](CCCNC(=N)N)C(=O)N[C@@H](CCCNC(=N)N)C(=O)N[C@@H](C)C(=O)N[C@@H](CCCNC(=N)N)C(=O)N[C@@H](CC(=O)O)C(=O)N[C@@H](Cc1ccccc1)C(=O)N[C@H](C(=O)N[C@@H](CCC(N)=O)C(=O)N[C@@H](Cc1c[nH]c2ccccc12)C(=O)N[C@@H](CC(C)C)C(=O)N[C@@H](CC(C)C)C(=O)N[C@@H](CCCCNC(=O)CC[C@H](NC(=O)CC[C@H](NC(=O)COCCOCCNC(=O)COCCOCCNC(=O)CC[C@H](NC(=O)CC[C@H](NC(=O)CCCCCCCCCCCCCCCCC(=O)O)C(=O)O)C(=O)O)C(=O)O)C(=O)O)C(=O)N[C@H](C(N)=O)[C@@H](C)O)C(C)C [Compound B, N^ε28-[(4S)-4-carboxy-4-[[(4S)-4-carboxy-4-[[2-[2-[2-[[2-[2-[2-[[(4S)-4-carboxy-4-[[(4S)-4-carboxy-4-(17-carboxyheptadecanoylamino)butanoyl]amino]butanoyl]amino]ethoxy]ethoxy]acetyl]amino]ethoxy]ethoxy]acetyl]amino]butanoyl]amino]butanoyl]-[Acb2,Leu10,Leu16,Arg20,Leu27,Lys28]-Glucagon amide] (H-H[Ac4c]QGTFTSDLSKYLDLRRARDFVQWLLK([γGlu-γGlu-AEEA-AEEA-γGlu-γGlu-C18 diacid])T-NH2) | the observed effect is bigger | 0.8 nM | the observed effect is bigger | 1.6 nM
CC(C)C[C@H](NC(=O)[C@H](Cc1ccc(O)cc1)NC(=O)[C@H](CCCCN)NC(=O)[C@H](CO)NC(=O)[C@H](CC(C)C)NC(=O)[C@H](CC(=O)O)NC(=O)[C@H](CO)NC(=O)[C@@H](NC(=O)[C@H](Cc1ccccc1)NC(=O)[C@@H](NC(=O)CNC(=O)[C@H](CCC(N)=O)NC(=O)C(C)(C)NC(=O)[C@@H](N)Cc1c[nH]cn1)[C@@H](C)O)[C@@H](C)O)C(=O)N[C@@H](CCC(=O)O)C(=O)N[C@@H](CO)C(=O)N[C@@H](CCCCN)C(=O)N[C@@H](CCCNC(=N)N)C(=O)N[C@@H](C)C(=O)N[C@@H](CCCNC(=N)N)C(=O)N[C@@H](CCC(=O)O)C(=O)N[C@@H](Cc1ccccc1)C(=O)N[C@H](C(=O)N[C@@H](CCC(N)=O)C(=O)N[C@@H](Cc1c[nH]c2ccccc12)C(=O)N[C@@H](CC(C)C)C(=O)N[C@@H](CC(C)C)C(=O)N[C@@H](CCCCNC(=O)CC[C@H](NC(=O)CC[C@H](NC(=O)[C@H](CO)NC(=O)[C@H](CCC(=O)O)NC(=O)[C@H](CO)NC(=O)CC[C@H](NC(=O)CC[C@H](NC(=O)CCCCCCCCCCCCCCCCC(=O)O)C(=O)O)C(=O)O)C(=O)O)C(=O)O)C(=O)N[C@H](C(N)=O)[C@@H](C)O)C(C)C [Compound A, N^ε28-[(4S)-4-carboxy-4-[[(4S)-4-carboxy-4-[[(2S)-2-[[(2S)-4-carboxy-2-[[(2S)-2-[[(4S)-4-carboxy-4-[[(4S)-4-carboxy-4-(17-carboxyheptadecanoylamino)butanoyl]amino]butanoyl]amino]-3-hydroxypropanoyl]amino]butanoyl]amino]-3-hydroxypropanoyl]amino]butanoyl]amino]butanoyl]-[Aib2,Leu10,Glu15,Lys17,Arg20,Glu21,Leu27,Lys28]-Glucagon amide] (H-H[Aib]QGTFTSDLSKYLESKRAREFVQWLLK([γGlu-γGlu-Ser-Glu-Ser-γGlu-γGlu-C18 diacid])T-NH2) | the observed effect is bigger | 1.4 nM | the observed effect is bigger | 0.3 nM
